# Source: US7754896B2, “Indol-alanine derivatives as selective S1P4-agonists” (Novartis AG, priority 2004, dated 2010)
# Target: T1, S1P4 (Homo sapiens, UniProt O95977)
# T1 construct: expressed in transfected cells
# T1 sequence (O95977 1-384): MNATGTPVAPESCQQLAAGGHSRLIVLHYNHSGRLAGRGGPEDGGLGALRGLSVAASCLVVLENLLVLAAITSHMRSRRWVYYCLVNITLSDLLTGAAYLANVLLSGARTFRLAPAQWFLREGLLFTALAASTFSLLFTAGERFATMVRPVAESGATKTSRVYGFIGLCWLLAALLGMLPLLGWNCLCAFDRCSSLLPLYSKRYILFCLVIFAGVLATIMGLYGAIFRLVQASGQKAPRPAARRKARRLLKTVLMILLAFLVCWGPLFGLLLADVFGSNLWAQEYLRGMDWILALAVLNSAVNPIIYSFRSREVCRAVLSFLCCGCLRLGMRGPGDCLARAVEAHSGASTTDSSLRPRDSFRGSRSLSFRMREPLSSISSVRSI
# Test: GTPγS binding assay, S1P4
# Assay type: biochemical
# Settings: CHO cells expressing S1P4
# Description: An expression vector for the human S1P4 gene (HSEDG4; GenBank Accession Number AJ000479) fused to the c-myc peptide tag at the C-terminus is obtained as described in Van Brocklyn et al. 2000, Blood 95(8), 2624. The encoding DNA for the S1P4-myc fusion protein is cloned in the mammalian expression vector pRc/CMV (Invitrogen), which confers G418 resistance for the selection of stable mammalian cells. The DNA sequence of the S1P4 insert is determined on both strands. […] The S1P4-myc cDNA is inserted into the pRc/CMV vector using HindIII/XbaI.
# To develop stable cell lines expressing the c-myc tagged S1P4 receptor 5 μg of plasmid pRc/CMV myc-S1P4 is cut using restriction endonuclease PvuI, which cleaves the plasmid once. The linearized plasmid is then precipitated using a final concentration of 0.3M sodium acetate, pH5.0 and 66% ethanol. After centrifugation and washing, the DNA pellet is dissolved in 30 μl water. […] Individual clones that grew after the sort and selection procedure are expanded and one clone is finally selected based on the level of S1P4 mRNA expression determined by TaqMan quantitative PCR analysis.
# Membrane proteins are prepared from wild type CHO-K1 and the CHO cell clones expressing human S1P4. […] The protein concentration is determined using the Bio Rad Protein Assay and human IgG as standard. […]
structure (smiles),measurement,value
NC(CNC(=O)c1cc2c(-c3ccccc3Cc3ccccc3)cccc2[nH]1)C(=O)O (stereo not shown) [Example 2],EC50,250 nM
